Data on 24 compounds can be found in patent publication US20240158394A1, “NEK7 INHIBITORS” (Halia Therapeutics, Inc., priority 2022, published 2024).

Sequence of full-length recombinant human NEK7 (Q8TDX7 whole entry): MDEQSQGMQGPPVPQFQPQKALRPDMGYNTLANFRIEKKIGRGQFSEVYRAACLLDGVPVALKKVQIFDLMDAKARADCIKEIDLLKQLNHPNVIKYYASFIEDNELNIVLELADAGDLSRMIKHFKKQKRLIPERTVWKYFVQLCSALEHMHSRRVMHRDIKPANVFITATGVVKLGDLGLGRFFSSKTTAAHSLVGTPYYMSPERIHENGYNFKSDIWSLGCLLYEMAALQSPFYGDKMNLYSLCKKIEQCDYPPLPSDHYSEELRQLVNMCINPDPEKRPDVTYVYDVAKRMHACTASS

This assay has as its target full-length recombinant human NEK7 (Homo sapiens (Human), UniProt Q8TDX7). Put plainly: NEK7 Enzymatic Assay. To be noted: casein substrate, [33P]-ATP, 2 hours at room temperature. It counts as biochemical. The protocol: Casein substrate (from bovine milk, hydrolyzed and partially dephosphorylated mixture of α, β and κ caseins, obtained from Sigma Aldrich, catalogue #C4765, diluted in distilled water to a final concentration of 1 mg/mL) and full-length recombinant human NEK7 (expressed by baculovirus in Sf9 insect cells using a N-terminal GST tag, obtained from SignalChem, catalogue #N09-10G, 0.1 μg/μL) were mixed in assay buffer (20 mM HEPES pH 7.5, 10 mM MgCl2, 1 mM EGTA, 0.02% Brij35, 0.02 mg/mL BSA, 0.1 mM Na3VO4, 2 mM DTT, 1% DMSO). Compounds of interest (serial 3-fold dilution in DMSO from 10 μM to 0.5 nM) or vehicle (1% DMSO) were dispensed into the kinase reaction mixture by Acoustic technology (Echo550; nanoliter range). After incubation at room temperature for 20 minutes, the kinase reaction was initiated by addition of [^33P]-ATP (specific activity 10 μCi/μL) and the mixture was incubated at room temperature for 2 hours. The reaction was then stopped by spotting the reaction mixture on strips of phosphocellulose P81 paper. Following washing, the radioactivity of the P81 paper was measured and kinase activity data were expressed as the percent remaining kinase activity in test samples compared to vehicle reactions. IC50 values and curve fits were obtained using Prism (GraphPad Software).
For `Nc1ncnc2c1c(-c1ccc(NC(=O)Nc3cc(C4(C(F)(F)F)CC4)on3)c3nccn13)cn2CCO` [Example I-85, 1-(5-(4-amino-7-(2-hydroxy-ethyl)-7H-pyrrolo[2,3-d]pyr-imidin-5-yl)imidazo[1,2-a]-pyridin-8-yl)-3-(5-(1-(tri-fluoromethyl)cyclopropyl)-isoxazol-3-yl)urea], the IC50 was less than 0.2 µM.

Turning to `CN1CCN(Cc2ccc(NC(=O)Nc3ccc(-c4cn(C5CCNCC5)c5ncnc(N)c45)n4ccnc34)cc2C(F)(F)F)CC1` [Example I-133, 1-(5-(4-amino-7-(piperidin-4-yl)-7H-pyrrolo[2,3-d]pyr-imidin-5-yl)imidazo[1,2-a]-pyridin-8-yl)-3-(4-((4-methyl-piperazin-1-yl)methyl)-3-(trifluoromethyl)phenyl)urea], the IC50 was less than 0.2 µM. In the case of `Nc1ncnc2c1c(-c1ccc(NC(=O)Nc3cc(C4(C(F)(F)F)CC4)no3)c3cnccc13)cn2C1CC1` [Example I-7, 1-(5-(4-amino-7-cyclopropyl-7H-pyrrolo[2,3-d]pyrimidin-5-yl)isoquinolin-8-yl)-3-(3-(1-(trifluoromethyl)cyclopropyl)-isoxazol-5-yl)urea], the IC50 fell in the range of 0.5 to 2 µM. Take `Cn1cc(-c2ccc(NC(=O)Nc3cc(C4(C(F)(F)F)CC4)on3)c3nccn23)c2c(N)ncnc21` [Example I-126, 1-(5-(4-amino-7-methyl-7H-pyrrolo[2,3-d]pyrimidin-5-yl)imidazo[1,2-a]pyridin-8-yl)-3-(5-(1-(trifluoromethyl)-cyclopropyl)isoxazol-3-yl)urea]: the IC50 is less than 0.2 µM. Regarding `Cc1cc(NC(=O)Nc2ccc(-c3cn(C4CC4)c4ncnc(N)c34)n3ccnc23)no1` [Example I-24, 1-(5-(4-amino-7-cyclopropyl-7H-pyrrolo[2,3-d]pyrimidin-5-yl)imidazo[1,2-a]pyridin-8-yl)-3-(5-methylisoxazol-3-yl)urea], the IC50 was greater than 2 µM.

As to `CC(C)n1cc(-c2ccc(NC(=O)Nc3ccc(OC4CCN(C)CC4)c(C(F)(F)F)c3)c3nccn23)c2c(N)ncnc21` [Example I-135, 1-(5-(4-amino-7-isopropyl-7H-pyrrolo[2,3-d]pyrimidin-5-yl)imidazo[1,2-a]pyridin-8-yl)-3-(4-((1-methylpiperidin-4-yl)oxy)-3-(trifluoromethyl)-phenyl)urea], the IC50 is less than 0.2 µM.

For `CN1CCC(Oc2ccc(NC(=O)Nc3ccc(-c4cn(C5CC5)c5ncnc(N)c45)c4ccoc34)cc2C(F)(F)F)CC1` [Example I-67, 1-(4-(4-amino-7-cyclopropyl-7H-pyrrolo[2,3-d]pyrimidin-5-yl)benzofuran-7-yl)-3-(4-((1-methylpiperidin-4-yl)oxy)-3-(trifluoromethyl)phenyl)urea], the IC50 was in the range of 0.5 to 2 µM. In the case of `Nc1ncnc2c1c(-c1ccc(NC(=O)Nc3cc(C4(C(F)(F)F)CC4)on3)c3nccn13)cn2C1CCNCC1` [Example I-94, 1-(5-(4-amino-7-(piperidin-4-yl)-7H-pyrrolo[2,3-d]pyr-imidin-5-yl)imidazo[1,2-a]-pyridin-8-yl)-3-(5-(1-(trifluoro-methyl)cyclopropyl)isoxazol-3-yl)urea], the IC50 was less than 0.2 µM. For the compound `CN1CCN(Cc2cc(NC(=O)Nc3ccc(-c4cn(C5CC5)c5ncnc(N)c45)n4ccnc34)cc(C(F)(F)F)c2)CC1` [Example I-36, 1-(5-(4-amino-7-cyclopropyl-7H-pyrrolo[2,3-d]pyrimidin-5-yl)imidazo[1,2-a]pyridin-8-yl)-3-(3-((4-methylpiperazin-1-yl)methyl)-5-(trifluorometh-yl)phenyl)urea], the IC50 is less than 0.2 µM.

`CC1Cc2c(-c3cn(C4CC4)c4ncnc(N)c34)ccc(NC(=O)Nc3cc(C4(C(F)(F)F)CC4)on3)c2O1` (stereo not drawn) [Example I-56, 1-(4-(4-amino-7-cyclopropyl-7H-pyrrolo[2,3-d]pyrimidin-5-yl)-2-methyl-2,3-dihydro-benzofuran-7-yl)-3-(5-(1-(trifluoromethyl)cyclopropyl)-isoxazol-3-yl)urea]: the IC50 is 0.5 to 2 µM.

Consider `CC(C)c1cc(NC(=O)Nc2ccc(-c3cn(C4CC4)c4ncnc(N)c34)n3ccnc23)no1` [Example I-26, 1-(5-(4-amino-7-cyclopropyl-7H-pyrrolo[2,3-d]pyrimidin-5-yl)imidazo[1,2-a]pyridin-8-yl)-3-(5-isopropylisoxazol-3-yl)urea], for which the IC50 lay in the range of 0.2 to 0.5 µM. In the case of `CN1CCC(Oc2ccc(NC(=O)Nc3ccc(-c4cn(C5CC5)c5ncnc(N)c45)c4c3OCC4)cc2C(F)(F)F)CC1` [Example I-55, 1-(4-(4-amino-7-cyclopropyl-7H-pyrrolo[2,3-d]pyrimidin-5-yl)-2,3-dihydrobenzofuran-7-yl)-3-(4-((1-methylpiperidin-4-yl)oxy)-3-(trifluorometh-yl)phenyl)urea], the IC50 was 0.2 to 0.5 µM. For the compound `COCCn1cc(-c2ccc(NC(=O)Nc3cc(C4(C(F)(F)F)CC4)on3)c3nccn23)c2c(N)ncnc21` [Example I-89, 1-(5-(4-amino-7-(2-methoxy-ethyl)-7H-pyrrolo[2,3-d]-pyrimidin-5-yl)imidazo[1,2-a]pyridin-8-yl)-3-(5-(1-(trifluoromethyl)cyclopropyl)-isoxazol-3-yl)urea], the IC50 is less than 0.2 µM. In the case of `CN1CCC(Oc2ccc(NC(=O)Nc3ccc(-c4cn(C5CC5)c5ncnc(N)c45)c4c3OC(C)(C)C4)cc2C(F)(F)F)CC1` [Example I-61, 1-(4-(4-amino-7-cyclopropyl-7H-pyrrolo[2,3-d]pyrimidin-5-yl)-2,2-dimethyl-2,3-dihydrobenzofuran-7-yl)-3-(4-((1-methylpiperidin-4-yl)-oxy)-3-(trifluoromethyl)phen-yl)urea], the IC50 is greater than 2 µM. As to `CC1(c2cc(NC(=O)Nc3ccc(-c4cn(C5CC5)c5ncnc(N)c45)c4ccncc34)on2)CC1` [Example I-6, 1-(5-(4-amino-7-cyclopropyl-7H-pyrrolo[2,3-d]pyrimidin-5-yl)isoquinolin-8-yl)-3-(3-(1-methylcyclopropyl)isoxazol-5-yl)urea], the IC50 is 0.2 to 0.5 µM.

As for `CC(C)(C)c1cc(NC(=O)Nc2ccc(-c3cn(C4CC4)c4ncnc(N)c34)n3ccnc23)no1` [Example I-27, 1-(5-(4-amino-7-cyclopropyl-7H-pyrrolo[2,3-d]pyrimidin-5-yl)imidazo[1,2-a]pyridin-8-yl)-3-(5-(tert-butyl)isoxazol-3-yl)urea], the IC50 was less than 0.2 µM. With `CC(C)n1cc(-c2ccc(NC(=O)Nc3cc(C4(C(F)(F)F)CC4)on3)c3nccn23)c2c(N)ncnc21` [Example I-83, 1-(5-(4-amino-7-isopropyl-7H-pyrrolo[2,3-d]pyrimidin-5-yl)imidazo[1,2-a]pyridin-8-yl)-3-(5-(1-(trifluorometh-yl)cyclopropyl)isoxazol-3-yl)-urea], the IC50 is less than 0.2 µM.

For `Nc1ncnc2c1c(-c1ccc(NC(=O)Nc3ccc(CN4CCN(CCO)CC4)c(C(F)(F)F)c3)c3nccn13)cn2C1CC1` [Example I-39, 1-(5-(4-amino-7-cyclopropyl-7H-pyrrolo[2,3-d]pyrimidin-5-yl)imidazo[1,2-a]pyridin-8-yl)-3-(4-((4-(2-hydroxyeth-yl)piperazin-1-yl)methyl)-3-(trifluoromethyl)phenyl)urea], the IC50 was less than 0.2 µM. Turning to `CC(C)(F)c1cc(NC(=O)Nc2ccc(-c3cn(C4CC4)c4ncnc(N)c34)n3ccnc23)on1` [Example I-20, 1-(5-(4-amino-7-cyclopropyl-7H-pyrrolo[2,3-d]pyrimidin-5-yl)imidazo[1,2-a]pyridin-8-yl)-3-(3-(2-fluoropropan-2-yl)isoxazol-5-yl)urea], the IC50 was less than 0.2 µM. Regarding `CN1CCN(Cc2ccc(NC(=O)Nc3ccc(-c4cn(C)c5ncnc(N)c45)n4ccnc34)cc2C(F)(F)F)CC1` [Example I-127, 1-(5-(4-amino-7-methyl-7H-pyrrolo[2,3-d]pyrimidin-5-yl)imidazo[1,2-a]pyridin-8-yl)-3-(4-((4-methylpiperazin-1-yl)methyl)-3-(trifluorometh-yl)phenyl)urea], the IC50 is less than 0.2 µM. In the case of `CN1CCN(Cc2ccc(NC(=O)Nc3ccc(-c4cn(C5CCC5)c5ncnc(N)c45)n4ccnc34)cc2C(F)(F)F)CC1` [Example I-129, 1-(5-(4-amino-7-cyclobutyl-7H-pyrrolo[2,3-d]pyrimidin-5-yl)imidazo[1,2-a]pyridin-8-yl)-3-(4-((4-methylpiperazin-1-yl)methyl)-3-(trifluorometh-yl)phenyl)urea], the IC50 was less than 0.2 µM. For `CC(C)c1cc(NC(=O)Nc2ccc(-c3cn(C4CC4)c4ncnc(N)c34)n3ccnc23)on1` [Example I-16, 1-(5-(4-amino-7-cyclopropyl-7H-pyrrolo[2,3-d]pyrimidin-5-yl)imidazo[1,2-a]pyridin-8-yl)-3-(3-isopropylisoxazol-5-yl)urea], the IC50 was less than 0.2 µM. Turning to `Nc1ncnc2c1c(-c1ccc(NC(=O)Nc3cc(C4(C(F)(F)F)CC4)on3)c3nccn13)cn2C1CC(O)C1` (stereo not drawn) [Example I-87, 1-(5-(4-amino-7-(3-hydroxy-cyclobutyl)-7H-pyrrolo[2,3-d]pyrimidin-5-yl)imidazo[1,2-a]pyridin-8-yl)-3-(5-(1-(trifluoromethyl)cyclopropyl)-isoxazol-3-yl)urea], the IC50 was less than 0.2 µM. `CC(C)(O)Cn1cc(-c2ccc(NC(=O)Nc3cc(C4(C(F)(F)F)CC4)on3)c3nccn23)c2c(N)ncnc21` [Example I-86, 1-(5-(4-amino-7-(2-hydroxy-2-methylpropyl)-7H-pyrrolo-[2,3-d]pyrimidin-5-yl)-imidazo[1,2-a]pyridin-8-yl)-3-(5-(1-(trifluoromethyl)-cyclopropyl)isoxazol-3-yl)urea]: the IC50 is less than 0.2 µM.
